# Reference: US6544931B1, “Substituted heteroaryloxyacetanilides and their use as herbicides” (Bayer Aktiengesellschaft, priority 1999, dated 2003)
# Where two headings read alike, the source gives them in different places.
# Experiments:
# [1] = logP by HPLC on reversed-phase column (EEC directive 79/831 Annex V.A8); type: physicochemical
# Protocol: The lopP values given in Table 1 were determined in accordance with EEC directive 79/831 Annex V.A8 by HPLC (High Performance Liquid Chromatography) on a reversed-phase column (C 18). Temperature: 43° C. (a) Mobile phases for the determination in the acidic range: 0.1% aqueous phosphoric acid, acetonitrile; linear gradient of 10% acetonitrile to 90% acetonitrile—corresponding data in Table 1 are labelled a). Calibration was carried out using unbranched alkan-2-ones (with 3 to 16 carbon atoms) whose logP values are known (determination of the logP values by the retention times using linear interpolation between two successive alkanones).
# Amaranthus [2] = test: Pre-emergence test/greenhouse; type: in vivo; conditions: after three weeks
# Protocol: (§1) Solvent: 5 parts by weight of acetone
# (§2) Emulsifier: 1 part by weight of alkylaryl polyglycol ether
# (§3) To produce a suitable preparation of active compound, 1 part by weight of active compound is mixed with the stated amount of solvent, the stated amount of emulsifier is added and the concentrate is diluted with water to the desired concentration.
# (§4) Seeds of the test plants are sown in normal soil. After about 24 hours, the soil is sprayed with the preparation of active compound such that the particular amount of active compound desired is applied per unit area. The concentration of the spray liquor is chosen so that the particular amount of active compound desired is applied in 1000 litre of water per hectare.
# (§5) After three weeks, the degree of damage to the plants is rated in % damage in comparison to the development of the untreated controls.
# (§6) 0%=no effect (like untreated control)
# Maize = test: Pre-emergence test/greenhouse; type: in vivo; conditions: after three weeks, crop plant
# Protocol: as §1, §2, §3, §4, §5, §6
# Matricaria = test: Pre-emergence test/greenhouse; type: in vivo; conditions: 125 g of ai/ha, after three weeks
# Protocol: as §1, §2, §3, §4, §5, §6
# Setaria [3] = test: Pre-emergence test/greenhouse; type: in vivo; conditions: after three weeks
# Protocol: as §1, §2, §3, §4, §5, §6
# Veronica = test: Pre-emergence test/greenhouse; type: in vivo; conditions: 125 g of ai/ha, after three weeks
# Protocol: as §1, §2, §3, §4, §5, §6
# weeds [4] = test: Pre-emergence test; type: in vivo; conditions: result in words
# Protocol: as §1, §2, §3, §4, §5, §6
# Amaranthus [5] = test: Post-emergence test/greenhouse; type: in vivo; conditions: after three weeks
# Protocol: as §1, §2, §3
# (§7) Test plants which have a height of 5 to 15 cm are sprayed with the preparation of active compound such that the particular amounts of active compound desired are applied per unit area. The concentration of the spray liquor is chosen so that the particular amounts of active compound desired are applied in 1000 l of water/ha.
# (§8) After three weeks, the degree of damage to the plants is rated in % damage in comparison to the development of the untreated control.
# as §6
# Galium = test: Post-emergence test/greenhouse; type: in vivo; conditions: after three weeks
# Protocol: as §1, §2, §3, §7, §8, §6
# Setaria [6] = test: Post-emergence test/greenhouse; type: in vivo; conditions: after three weeks
# Protocol: as §1, §2, §3, §7, §8, §6
# Sinapis [7] = test: Post-emergence test/greenhouse; type: in vivo; conditions: after three weeks
# Protocol: as §1, §2, §3, §7, §8, §6
# weeds [8] = test: Post-emergence test; type: in vivo; conditions: result in words
# Protocol: as §1, §2, §3, §7, §8, §6
# Echinochloa = test: Pre-emergence test/greenhouse; type: in vivo; conditions: 500 g of ai/ha, after three weeks
# Protocol: as §1, §2, §3, §4, §5, §6
# Sugar beet = test: Pre-emergence test/greenhouse; type: in vivo; conditions: 500 g of ai/ha, after three weeks, crop plant
# Protocol: as §1, §2, §3, §4, §5, §6
# Ipomoea = test: Post-emergence test/greenhouse; type: in vivo; conditions: 500 g of ai/ha, after three weeks
# Protocol: as §1, §2, §3, §7, §8, §6
# Alopecurus = test: Pre-emergence test/greenhouse; type: in vivo; conditions: 500 g of ai/ha, after three weeks
# Protocol: as §1, §2, §3, §4, §5, §6
# Avena fatua [9] = test: Pre-emergence test/greenhouse; type: in vivo; conditions: 500 g of ai/ha, after three weeks
# Protocol: as §1, §2, §3, §4, §5, §6
# Avena fatua [10] = test: Post-emergence test/greenhouse; type: in vivo; conditions: 500 g of ai/ha, after three weeks
# Protocol: as §1, §2, §3, §7, §8, §6
# Sinapis [11] = test: Pre-emergence test/greenhouse; type: in vivo; conditions: 500 g of ai/ha, after three weeks
# Protocol: as §1, §2, §3, §4, §5, §6
# Cotton = test: Pre-emergence test/greenhouse; type: in vivo; conditions: 500 g of ai/ha, after three weeks, crop plant
# Protocol: as §1, §2, §3, §4, §5, §6
# Eriochloa = test: Pre-emergence test/greenhouse; type: in vivo; conditions: 500 g of ai/ha, after three weeks
# Protocol: as §1, §2, §3, §4, §5, §6
# Lolium = test: Pre-emergence test/greenhouse; type: in vivo; conditions: 500 g of ai/ha, after three weeks
# Protocol: as §1, §2, §3, §4, §5, §6
# Digitaria = test: Pre-emergence test/greenhouse; type: in vivo; conditions: 500 g of ai/ha, after three weeks
# Protocol: as §1, §2, §3, §4, §5, §6
# Wheat = test: Pre-emergence test/greenhouse; type: in vivo; conditions: 500 g of ai/ha, after three weeks, crop plant
# Protocol: as §1, §2, §3, §4, §5, §6
# [12] = reversed-phase HPLC column (C 18); a) acidic range: 0.1% aqueous phosphoric acid, acetonitrile gradient, HPLC C 18, 43° C., read-out: logP
structure (smiles),measurement,setting,value
C#CCN(C(=O)COc1nnc(C(F)(F)F)s1)c1ccc(F)cc1 [Example 4],chromatographic logP,[1]; [12],2.97
same,"degree of damage, Amaranthus",Amaranthus [2]; 125 g of ai/ha,100%
same,"degree of damage, Maize",Maize; 125 g of ai/ha,0%
same,"degree of damage, Matricaria",Matricaria,100%
same,"degree of damage, Setaria",Setaria [3]; 125 g of ai/ha,100%
same,"degree of damage, Veronica",Veronica,100%
same,activity against weeds,weeds [4],strong activity
same,"degree of damage, Amaranthus",Amaranthus [5]; 2000 g of ai/ha,95%
same,"degree of damage, Galium",Galium; 2000 g of ai/ha,90%
same,"degree of damage, Setaria",Setaria [6]; 2000 g of ai/ha,90%
same,"degree of damage, Sinapis",Sinapis [7]; 2000 g of ai/ha,95%
same,activity against weeds,weeds [8],strong activity
CC(C)(C)N(C(=O)COc1nnc(C(F)(F)F)s1)c1cccc(Cl)c1 [Example 9],"degree of damage, Echinochloa",Echinochloa,95%
same,"degree of damage, Maize",Maize; 500 g of ai/ha,0%
same,"degree of damage, Setaria",Setaria [3]; 500 g of ai/ha,100%
same,"degree of damage, Sugar beet",Sugar beet,0%
same,activity against weeds,weeds [4],strong activity
same,"degree of damage, Galium",Galium; 500 g of ai/ha,90%
same,"degree of damage, Ipomoea",Ipomoea,90%
same,"degree of damage, Setaria",Setaria [6]; 500 g of ai/ha,70%
same,activity against weeds,weeds [8],strong activity
same,melting point,,84 °C
"CC(C)(C)N(C(=O)COc1nnc(C(F)(F)F)s1)c1ccc(Cl)cc1 [Example 1, N-(t-butyl)-N-(4-chlorophenyl)-2-(5-trifluoromethyl-1,3,4-thiadiazol-2-yl-oxy)-acetamide]","degree of damage, Alopecurus",Alopecurus,80%
same,"degree of damage, Avena fatua",Avena fatua [9],80%
same,"degree of damage, Echinochloa",Echinochloa,95%
same,"degree of damage, Maize",Maize; 500 g of ai/ha,0%
same,"degree of damage, Setaria",Setaria [3]; 500 g of ai/ha,100%
same,activity against weeds,weeds [4],strong activity
same,"degree of damage, Avena fatua",Avena fatua [10],80%
same,"degree of damage, Galium",Galium; 500 g of ai/ha,90%
same,"degree of damage, Ipomoea",Ipomoea,90%
same,"degree of damage, Setaria",Setaria [6]; 500 g of ai/ha,90%
same,activity against weeds,weeds [8],strong activity
same,melting point,,82 °C
"CC(C)(C)N(C(=O)CCl)c1ccc(Cl)cc1 [IV-1, N-(t-butyl)-N-(4-chlorophenyl)-2-chloroacetamide]",chromatographic logP,"[1]; reversed-phase HPLC column (C 18), pH=2.5, read-out: logP (at pH=2.5)",3.34
"C#CCN(C(=O)CCl)c1ccc(F)cc1 [IV-2, N-(4-fluorophenyl)-N-(2-propinyl)-2-chloroacetamide]",logP,[1],logP = 2.69^a)
C#CCN(C(=O)COc1nc2ccccc2o1)c1ccc(F)cc1 [Example 6],"degree of damage, Amaranthus",Amaranthus [2]; 500 g of ai/ha,100%
same,"degree of damage, Setaria",Setaria [3]; 500 g of ai/ha,100%
same,"degree of damage, Sinapis",Sinapis [11],95%
same,activity against weeds,weeds [4],strong activity
same,"degree of damage, Amaranthus",Amaranthus [5]; 500 g of ai/ha,90%
same,"degree of damage, Galium",Galium; 500 g of ai/ha,90%
same,"degree of damage, Setaria",Setaria [6]; 500 g of ai/ha,90%
same,activity against weeds,weeds [8],strong activity
same,melting point,,138 °C
"C#CCN(C(=O)CO)c1ccc(F)cc1 [III-2, N-(4-fluorophenyl)-N-(2-propinyl)-2-hydroxyacetamide]",melting point,,57 °C
C#CCN(C(=O)COc1nnc(C(F)(F)F)s1)c1cccc(C(F)(F)F)c1 [Example 3],chromatographic logP,[1]; [12],3.45
same,"degree of damage, Amaranthus",Amaranthus [2]; 500 g of ai/ha,100%
same,"degree of damage, Cotton",Cotton,0%
same,"degree of damage, Eriochloa",Eriochloa,95%
same,"degree of damage, Lolium",Lolium,100%
same,"degree of damage, Maize",Maize; 500 g of ai/ha,0%
same,"degree of damage, Setaria",Setaria [3]; 500 g of ai/ha,100%
same,activity against weeds,weeds [4],strong activity
same,"degree of damage, Amaranthus",Amaranthus [5]; 2000 g of ai/ha,100%
same,"degree of damage, Galium",Galium; 2000 g of ai/ha,90%
same,"degree of damage, Setaria",Setaria [6]; 2000 g of ai/ha,95%
same,"degree of damage, Sinapis",Sinapis [7]; 2000 g of ai/ha,100%
same,activity against weeds,weeds [8],strong activity
"CC(C)(C)N(C(=O)CO)c1ccc(Cl)cc1 [III-1, N-(t-butyl)-N-(4-chlorophenyl)-2-hydroxyacetamide]",chromatographic logP,"[1]; reversed-phase HPLC column (C 18), pH=2.3, read-out: logP (at pH=2.3)",2.54
CC(C)(C)N(C(=O)COc1nnc(C(F)(F)F)s1)c1ccc(F)cc1 [Example 7],"degree of damage, Alopecurus",Alopecurus,90%
same,"degree of damage, Amaranthus",Amaranthus [2]; 500 g of ai/ha,95%
same,"degree of damage, Digitaria",Digitaria,100%
same,"degree of damage, Eriochloa",Eriochloa,100%
same,"degree of damage, Setaria",Setaria [3]; 500 g of ai/ha,100%
same,"degree of damage, Wheat",Wheat,0%
same,activity against weeds,weeds [4],strong activity
same,"degree of damage, Amaranthus",Amaranthus [5]; 1000 g of ai/ha,80%
same,"degree of damage, Galium",Galium; 1000 g of ai/ha,95%
same,"degree of damage, Setaria",Setaria [6]; 1000 g of ai/ha,80%
same,"degree of damage, Sinapis",Sinapis [7]; 1000 g of ai/ha,80%
same,activity against weeds,weeds [8],strong activity
same,melting point,,85 °C
